Measured values as given in paper PMC9146377, “Design and Synthesis of Novel Bis-Imidazolyl Phenyl Butadiyne Derivatives as HCV NS5A Inhibitors” (Pharmaceuticals, 2022).
Where two headings read alike, the source gives them in different places.

Assays:
[1] = system: HCV genotype 1b Con-1 subgenomic replicon; test: Anti-HCV luciferase assay, genotype 1b (Con1) subgenomic replicon in Huh5-2 cells; assay type: cell-based, Hepatitis C virus; settings: for HCV Replicon 1b SI50: CC50/EC50, Huh5-2 cells; for EC50: Hepatitis C virus
Procedure: (§1) All synthesized compounds were tested against HCV genotype 1b Con-1 subgenomic replicon in the Huh-5-2 stable cell line. Specifically, their activity against viral replication was estimated by measuring firefly luciferase, which is co-expressed by the bicistronic replicon, and their half-maximal effective concentrations (EC50) were determined. In parallel, the half-maximal cytotoxic concentrations (CC50) of the compounds were estimated, and their selective indexes (SI50: CC50/ EC50) were calculated. All novel synthesized compounds were active against HCV 1b with EC50 < 1 µM except for compound 4b (Table 3).
Huh5-2 [65] and Huh7-JFH1 [66] stable cell lines harbor the subgenomic HCV reporter replicon I389luc-ubi-neo/NS3-3′/Con1/5.1 (genotype 1b; strain Con1) and I389luc-ubi-neo/NS3-3′_dg_JFH1 (genotype 2a, JFH1 strain), respectively (kindly provided by R. Bartenschlager, Heidelberg University, Heidelberg, Germany). Huh7.5-3a and Huh7.5-4a stable cell lines harbor the subgenomic HCV reporter replicon S52-SG (Feo) (AII) (genotype 3a; S52 strain) and ED43-SG (Feo) (VYG) (genotype 4a; ED43 strain), respectively (viral constructs kindly provided by C.M. Rice, Rockefeller University, New York, NY, USA). These replicons carry as a first cistron firefly luciferase (F-Luc) and neomycin phosphotransferase genes under the translational control of the HCV internal ribosome entry site (IRES), followed by HCV NS3 to NS5B proteins under the control of the EMCV IRES.
The anti-HCV assay in replicon cells was performed by seeding 1 × 10^4 cells per well in a 96-well plate. After 24 h of incubation at 37 °C (5% CO2) and medium removal, serial dilutions of the test compounds in complete DMEM were added. Cells were lysed after 72 h, and F-Luc activity was measured. The anti-HCV assay for the full-length viral construct H77S.3/GLuc2A was performed after electroporation of Huh7-Lunet cells with viral RNA. Cells were seeded in 96-well plates, the medium was removed 24 h after electroporation, and serial dilutions of the compounds in complete DMEM were added. At 72 h post-treatment, cell supernatants were collected, and G-Luc activity was measured. In addition, the cells were lysed for total protein quantification.
Relative luminescence units (RLU) were expressed as a percentage of the respective units derived from DMSO-treated cells (control). The half-maximal effective concentration (EC50), defined as the concentration of compound that reduces luciferase signal by 50%, was calculated by dose-response curve analysis using Prism 5.0 software (GraphPad Software Inc., San Diego, CA, USA).
The F-Luc activity was measured using the Luciferase Assay System (Promega, Madison, WI, USA), as recommended by the manufacturer. The G-Luc activity was measured using 12 μM coelenterazine (Promega) in assay buffer (50 mM potassium phosphate, pH 7.4, 500 mM NaCl, 1 mM EDTA). Measurements were carried out using a GloMax 20/20 single tube luminometer (Promega) for 10 s. The F-Luc activity was normalized to the total protein amount determined using the Bradford assay reagent (Pierce, Waltham, MA, USA).

[2] = Cytotoxicity assay (intracellular ATP levels) in Huh5-2 replicon cells; assay type: cell-based; settings: human, Huh5-2 cells, read-out: HCV Replicon 1b CC50
Procedure: as §1
Intracellular ATP levels were measured to determine the cytotoxicity of the compounds in the treated cells. In 96-well plates, 10^4 cells per well were seeded, incubated with serial dilutions of the compounds or DMSO as a control for 72 h at 37 °C (5% CO2) and lysed for ATP measurement. ATP levels were measured using the ViaLight HS BioAssay kit (Lonza, Basel, Switzerland) in a GloMax 20/20 single-tube luminometer (Promega) for 1 s, according to the manufacturer’s protocol. Values were normalized to total protein amounts and used to determine the compound concentration causing 50% cell death (CC50). Nonlinear regression analysis was performed using Prism 5.0 software (GraphPad Software Inc., San Diego, CA, USA).

[3] = Huh-5-2, 72 h, Huh5-2 cells, Con1 strain, F-Luc, 72 h, mean of three experiments, read-out: HCV Replicon 1b EC50

SMILES	HCV Replicon 1b SI50 [1]	EC50 [1, 3] [µM]	CC50 at 72 h [2] [µM]	melting point [°C]	EC50 ([1]; Huh-5-2, 72 h, read-out: HCV Replicon 1b EC50, Huh5-2 cells, Con1 strain, F-Luc, 72 h, mean of three experiments) [µM]	EC50 ([1]; Huh-5-2, Table S1, in vitro result versus genotype 1b, read-out: NS5A EC50) [µM]
CCOC(=O)N[C@H](C(=O)N1CCC[C@H]1c1ncc(-c2cccc(C#CC#Cc3cccc(-c4cnc([C@@H]5CCCN5C(=O)[C@@H](NC(=O)OCC)C(C)C)[nH]4)c3)c2)[nH]1)C(C)C [Compound 3a, Diethyl ((2S,2′S)-((2S,2′S)-((buta-1,3-diyne-1,4-diylbis(3,1-phenylene))bis(1H-imidazole-5,2-diyl))bis(pyrrolidine-2,1-diyl))bis(3-methyl-1-oxobutane-1,2-diyl))dicarbamate]	>629.72	0.159	> 100	124 to 126.7		
COC(=O)N[C@@H](CC(C)C)C(=O)N1CCC[C@H]1c1ncc(-c2cccc(C#CC#Cc3cccc(-c4cnc([C@@H]5CCCN5C(=O)[C@H](CC(C)C)NC(=O)OC)[nH]4)c3)c2)[nH]1 [Compound 5a, Dimethyl ((2S,2′S)-((2S,2′S)-((buta-1,3-diyne-1,4-diylbis(3,1-phenylene))bis(1H-imidazole-5,2-diyl))bis(pyrrolidine-2,1-diyl))bis(4-methyl-1-oxopentane-1,2-diyl))dicarbamate]	>879.51	0.114	> 100	103.1 to 105.3		
CCOC(=O)N[C@H](C(=O)N1CCC[C@H]1c1ncc(-c2ccc(C#CC#Cc3ccc(-c4cnc([C@@H]5CCCN5C(=O)[C@@H](NC(=O)OCC)C(C)C)[nH]4)cc3)cc2)[nH]1)C(C)C [Compound 3b, Diethyl ((2S,2′S)-((2S,2′S)-((buta-1,3-diyne-1,4-diylbis(4,1-phenylene))bis(1H-imidazole-5,2-diyl))bis(pyrrolidine-2,1-diyl))bis(3-methyl-1-oxobutane-1,2-diyl))dicarbamate]	>297.44	0.336	> 100	139 to 141		
CCOC(=O)N[C@@H](CC(C)C)C(=O)N1CCC[C@H]1c1ncc(-c2ccc(C#CC#Cc3ccc(-c4cnc([C@@H]5CCCN5C(=O)[C@H](CC(C)C)NC(=O)OCC)[nH]4)cc3)cc2)[nH]1 [Compound 7b, Diethyl ((2S,2′S)-((2S,2′S)-((buta-1,3-diyne-1,4-diylbis(4,1-phenylene))bis(1H-imidazole-5,2-diyl))bis(pyrrolidine-2,1-diyl))bis(4-methyl-1-oxopentane-1,2-diyl))dicarbamate]	>1699.23	0.0588	> 100	118 to 120		
COC(=O)N[C@H](CC(C)C)C(=O)N1CCC[C@H]1c1ncc(-c2ccc(C#CC#Cc3ccc(-c4cnc([C@@H]5CCCN5C(=O)[C@@H](CC(C)C)NC(=O)OC)[nH]4)cc3)cc2)[nH]1 [Compound 6b, Dimethyl ((2R,2′R)-((2S,2′S)-((buta-1,3-diyne-1,4-diylbis(4,1-phenylene))bis(1H-imidazole-5,2-diyl))bis(pyrrolidine-2,1-diyl))bis(4-methyl-1-oxopentane-1,2-diyl))dicarbamate]	>1512.63		> 100	129 to 131	0.0421	0.0661
COC(=O)N[C@@H](C(=O)N1CCC[C@H]1c1ncc(-c2cccc(C#CC#Cc3cccc(-c4cnc([C@@H]5CCCN5C(=O)[C@H](NC(=O)OC)C(C)C)[nH]4)c3)c2)[nH]1)C(C)C [Compound 2a, Dimethyl ((2R,2′R)-((2S,2′S)-((buta-1,3-diyne-1,4-diylbis(3,1-phenylene))bis(1H-imidazole-5,2-diyl))bis(pyrrolidine-2,1-diyl))bis(3-methyl-1-oxobutane-1,2-diyl))dicarbamate]	>250.06	0.4	> 100	103 to 105		
